Laboratory results taken from ChEMBL document CHEMBL3045580, “New aspect of gallic esters: marked effect on termite feeding” (J Pestic Sci, 2011).
Active and inactive are the calls of the source. The calls are words filed in the database; no cut-off is given here.

Legend:
Format in all cases: functional, organism-based
Coptotermes formosanus [1] = assay: Antifeeding activity against Coptotermes formosanus undifferentiated larvae assessed as induction of feeding deterrence using 0.5% w/w compound treated filter paper disks measured after 1 week by no-choice feeding test
Coptotermes formosanus [2] = assay: Feeding stimulant effect in Coptotermes formosanus undifferentiated larvae using 0.5% w/w compound treated filter paper disks measured after 1 week by no-choice feeding test
Coptotermes formosanus [3] = assay: Antifeeding activity against Coptotermes formosanus undifferentiated larvae assessed as induction of feeding deterrence compound treated filter paper disks measured after 1 week by no-choice feeding test

Structure (SMILES): CCCOC(=O)c1cc(O)c(O)c(O)c1
- Activity (Coptotermes formosanus [1]): Active

Structure (SMILES): CCCCCCCCCCCCCCCCCCOC(=O)c1cc(O)c(O)c(O)c1
- Activity (Coptotermes formosanus [2]): Active

Structure (SMILES): CCCCCCCCCCCCOC(=O)c1cc(O)c(O)c(O)c1
- Activity (Coptotermes formosanus [1]): Active

Structure (SMILES): CCCCCCCCCCOC(=O)c1cc(O)c(O)c(O)c1 [DECYL GALLATE]
- IC50 (Coptotermes formosanus [3]): 0.05%
- Activity (Coptotermes formosanus [1]): Active

Structure (SMILES): CCCCCCCCCCCCCCOC(=O)c1cc(O)c(O)c(O)c1
- Activity (Coptotermes formosanus [1]): Active

Structure (SMILES): CCCCCCCCOC(=O)c1cc(O)c(O)c(O)c1
- Activity (Coptotermes formosanus [1]): Active

Structure (SMILES): CCCCCCOC(=O)c1cc(O)c(O)c(O)c1
- Activity (Coptotermes formosanus [1]): Active
